Values quoted from earlier work, collected in patent publication US12384832B2 (priority 2019, dated 2025).
Where two headings read alike, the source gives them in different places.

Target: TEM-1 (Escherichia coli, UniProt P62593)
Conditions: read-out: KM TEM-1, cited from earlier work

Sequence of TEM-1 (P62593 24-286 limits assumed): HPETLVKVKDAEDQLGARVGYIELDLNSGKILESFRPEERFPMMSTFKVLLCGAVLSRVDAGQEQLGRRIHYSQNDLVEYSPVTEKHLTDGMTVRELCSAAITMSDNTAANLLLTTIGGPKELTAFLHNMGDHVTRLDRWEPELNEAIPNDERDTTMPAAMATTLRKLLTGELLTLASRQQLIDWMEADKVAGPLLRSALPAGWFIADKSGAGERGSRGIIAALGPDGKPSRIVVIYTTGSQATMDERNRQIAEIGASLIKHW

SMILES	Km (substrate hydrolysis)	Km
CC1(C)S[C@@H]2[C@H](NC(=O)Cc3ccccc3)C(=O)N2[C@H]1C(=O)O [benzylpenicillin]	26 µM	–
CC1(C)S[C@@H]2[C@H](NC(=O)[C@H](N)c3ccccc3)C(=O)N2[C@H]1C(=O)O [ampicillin]	40 µM	–
O=C(Cc1cccs1)N[C@@H]1C(=O)N2C(C(=O)[O-])=C(C[n+]3ccccc3)CS[C@H]12 [cefaloridine]	–	244 µM
